Tests used:
[1] = comparison values quoted without source or species; cited from earlier work
[2] = Mouse biodistribution study; format: in vivo, Slc:ICR mice; conditions: mice; for accumulation of labeled compound in the myocardium versus adjacent organs: i.v., 60 or 120 minutes after administration, gamma counter, n=4; for ratio of radioactivity accumulations in the myocardium and liver (heart/liver ratio): time point of 60 minutes
Protocol: (§1) The animals used in this measurement were 6-8-week-old male Slc:ICR mice (from Japan SLC, Inc.) (n=4). Each of different physiological saline solutions of the [^18F]-labeled compounds (200 μL, 370-740 kBq) used in this measurement was administered to the awake mice via the caudal vein, and after 60 or 120 minutes of the administration, the mice were euthanized by cervical dislocation under isoflurane anesthesia. After blood was sampled from the heart immediately, the heart, lung, liver, spleen, kidney, small intestine, thigh muscle, thigh bone, and brain were excised and measured for amount of radioactivity by a γ counter. The weights of the excised organs were measured, and on that basis, the accumulation rates per gram of the organs with respect to dose (% dose/g of organ, % ID/g) were calculated as indicators for accumulation of the chemical compounds used (n=4).

myocardium [3] = test: Mouse PET/CT imaging; format: in vivo, Slc:ICR mice; conditions: mice, i.v. caudal vein; for contrast of myocardial images: PET/CT 60 minutes after administration; for accumulation of radioactivity in the myocardium (PET/CT images): imaged 60 minutes after administration for 10 minutes
Protocol: The animals used in this measurement were 6-10-week-old male Slc:ICR mice (from Japan SLC, Inc.). […] Then, the mice were fixed under isoflurane anesthesia (2%, 1.5 mL/min.), and after 60 minutes of the administration, the whole bodies of the mice were imaged by small-animal PET (ClairvivoPET produced by Shimadzu Corporation) for 10 minutes. Subsequently, while the mice were kept fixed, their whole bodies were imaged by small-animal CT (ClairvivoCT produced by Shimadzu Corporation). The PET data were reconstructed by 3D-DRAMA, and the pixel values of the obtained PET images were converted to SUV to generate SUV images. These images were fused with CT images to produce fused images.

myocardium [4] = test: Small-animal PET study in rats; format: in vivo, Wistar rats; conditions: i.v., PET 0 to 120 minutes
Protocol: The myocardial imaging study of [^18F]TAP-018 in rats was conducted using 6-week-old male Wistar rats. 200 μL (7.83-9.66 MBq) of a physiological saline solution of the test compound [^18F]TAP-018 was administered via the caudal vein to the rats fixed under isoflurane anesthesia (2%, 1.5 mL/min.), and then the whole bodies of the rats were imaged by small-animal PET at time points from 0 to 120 minutes after the administration. Subsequently, while the rats were kept fixed, their whole bodies were imaged by small-animal CT. The PET data were reconstructed by 3D-DRAMA, and the pixel values of the obtained PET images were converted to SUV to generate SUV images. These images were fused with CT images to produce fused images. Further, the locations of the myocardium, lung and liver were identified based on the fused images, and regions of interest (ROI) were drawn to calculate respective SUVavg values.

[5] = Rat biodistribution study; format: in vivo, Wistar rats; conditions: rats
Protocol: as §1
The biodistribution study of [^18F]TAP-018 in rats was conducted by the same procedure as in Test Example 2 using 6-week-old male Wistar rats (from Japan SLC, Inc.) (n=4). The results are summarized in a bar graph (FIG. 4). […] This value is about ten times higher than the value of 1.5 for [^18F]FBnTP which has been used as a gold standard, and is sufficiently higher than the value of 9.2 for [^18F]FTPP which is currently under clinical study.

[6] = background statement; cited from earlier work

SMILES	ratio of radioactivity accumulations in the myocardium and liver (heart/liver ratio) [2]	accumulation in the heart ([5]; i.v., n=4)	heart/liver ratio ([5]; time point of 60 minutes)	heart/liver ratio (comparison values of reference agents) [1]	accumulation of labeled compound in the myocardium versus adjacent organs [2]	contrast of myocardial images (myocardium [3])	accumulation of radioactivity in the myocardium (PET/CT images) (myocardium [3])	accumulation of radioactivity in the heart (radioactivity-time curve) (myocardium [4])	disappearance of radioactivity from the liver (radioactivity-time curve) (myocardium [4])	accumulation in liver relative to myocardium [6]
[18F]c1ccc([P+](c2ccccc2)(c2ccccc2)c2ccccc2)cc1 [[^18F]FTPP]				9.2						
[18F]CCOc1cccc([P+](CCCc2ccccc2)(c2ccccc2)c2ccccc2)c1.[Br-] [[^18F]TAP-022, [^18F][3-(2-fluoroethoxy)phenyl]-(3-phenylpropyl)-diphenylphosphonium bromide]	4.98				more highly accumulates in the myocardium than in other adjacent organs	high-contrast myocardial images were obtained	accumulation of radioactivity in the myocardium was observed			
[18F]c1ccc(C[P+](c2ccccc2)(c2ccccc2)c2ccccc2)cc1.[Br-] [[^18F]FBnTP, 4-[^18F]fluorobenzyl-triphenylphosphonium bromide]				1.5						accumulating not only in the myocardium but also in the liver adjacent to the myocardium to the same extent

Continued, in another order:

ratio of radioactivity accumulations in the myocardium and liver (heart/liver ratio) [2]	accumulation in the heart ([5]; i.v., n=4)	heart/liver ratio ([5]; time point of 60 minutes)	SMILES	heart/liver ratio (comparison values of reference agents) [1]	accumulation of labeled compound in the myocardium versus adjacent organs [2]	contrast of myocardial images (myocardium [3])	accumulation of radioactivity in the myocardium (PET/CT images) (myocardium [3])	accumulation of radioactivity in the heart (radioactivity-time curve) (myocardium [4])	disappearance of radioactivity from the liver (radioactivity-time curve) (myocardium [4])	accumulation in liver relative to myocardium [6]
9.40	highly accumulated in the heart	about 15.5	[18F]CCOc1cccc([P+](Cc2ccccc2)(c2ccccc2)c2ccccc2)c1.[Br-] [[^18F]TAP-018, Benzyl[3-(2-[^18F]fluoroethoxy)phenyl]-diphenylphosphonium bromide]		more highly accumulates in the myocardium than in other adjacent organs	high-contrast myocardial images were obtained	accumulation of radioactivity in the myocardium was observed	a high level of radioactivity accumulated in the heart immediately after the administration	radioactivity disappeared rapidly from the liver until 10 minutes after the administration	
4.56			COc1ccc(C[P+](c2ccccc2)(c2ccccc2)c2cccc(OCC[18F])c2)cc1 [[^18F]TAP-019, [3-(2-[^18F]fluoroethoxy)phenyl]-(4-methoxyphenyl)methyl-diphenylphosphonium bromide]		more highly accumulates in the myocardium than in other adjacent organs	high-contrast myocardial images were obtained	accumulation of radioactivity in the myocardium was observed			
2.70			[18F]CCOc1ccc([P+](Cc2ccccc2)(c2ccccc2)c2ccccc2)cc1 [[^18F]TAP-001, Benzyl-[4-(2-[^18F]fluoroethoxy)phenyl]-diphenylphosphonium bromide]		more highly accumulates in the myocardium than in other adjacent organs		accumulation of radioactivity in the myocardium was observed			

— patent US20180030074A1, “PHOSPHONIUM COMPOUND AND PRODUCTION METHOD THEREFOR” (priority 2014, published 2018)
